In patent US20100221763A1, “Specific Acceptors for Transferases to Saccharides and Method for Obtaining and Using Same” (Health Research, Inc, priority 2005, published 2010):
“And” between values parts separate entries of the source, which are not always exact repeats. Identical values can stand only once.

Assays:
[1] = target: T1, Rat recombinant α2,3(N)ST (Rattus norvegicus, UniProt Q02734); experiment: Sialyltransferase assay with cloned α2,3(N)ST; assay type: biochemical; settings: Table I; acceptor 7.5 mM; 100% = 29520 CPM (Galβ1,4GlcNAcβ-O—Al)
T1 construct: purchased Calbiochem
T1 sequence (Q02734 29-374 limits assumed): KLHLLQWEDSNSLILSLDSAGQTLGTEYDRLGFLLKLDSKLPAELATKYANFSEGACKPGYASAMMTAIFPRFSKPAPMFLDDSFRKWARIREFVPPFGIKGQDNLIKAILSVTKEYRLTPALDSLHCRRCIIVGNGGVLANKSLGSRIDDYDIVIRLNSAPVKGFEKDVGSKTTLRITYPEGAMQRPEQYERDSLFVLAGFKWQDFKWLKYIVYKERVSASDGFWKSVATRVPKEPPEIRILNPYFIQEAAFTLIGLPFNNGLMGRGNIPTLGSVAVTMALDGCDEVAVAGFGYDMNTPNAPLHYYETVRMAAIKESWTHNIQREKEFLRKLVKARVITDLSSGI
Outline: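 Each rat recombinant sialyltransferase incubated 2 h at 37° C in 0.1M NaCacodylate pH6.0 with acceptor (typically 7.5 mM) and CMP-[9-³H]NeuAc (typically 0.2 μci; 20 μci/nmol), in duplicate, acceptor-free blank subtracted. Radiolabelled product separated on Dowex-1-Formate or Sep-Pak C18 and counted by liquid scintillation.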

[2] = system: α1,2-L-FT of colon tumor CC9338; experiment: α1,2-L-FT assay, colon tumor extract; assay type: biochemical, human; settings: 1 mg protein of the tissue extract
Description: (§1) Colon tumor tissue (CC9338) and breast tumor tissue (BC9400) were obtained during surgical procedures at Roswell Park Cancer Institute and stored frozen within 1 h at −70° C. The tissues were homogenized at 4° C. with 4 volumes of 0.1M Tris Maleate […] 0.1% NaN3 using kinematica. After adjusting the concentration of Triton X-100 to 2%, these homogenates were mixed in the cold room for 1 h using Speci-Mix (Thermolyne) and then centrifuged at 20,000 g for 1 h at 4° C. The clear fat-free supernatant was stored frozen at −20° C. until use. Aliquots of 10 μL from this extract were used in assays run in duplicates. Glycosyltransferase activity in cell lysate was determined by mixing the lysates with acceptor and radiolabeled donor (monosaccharide) under the reaction conditions detailed below, followed by separation of un-reacted donor from the radioactive product using anionic or hydrophobic chromatography. In all cases, the radioactive content of isolated products was determined by using 3a70 scintillation cocktail (Research Products International, Mount Prospect, Ill.) and a Beckman LS6500 scintillation counter. Controls for each assay contained the reaction mixture with everything except the acceptor. All assays were run in duplicate.
(§2) α1,2, α1,6-, α1,3- and α1,4-fucosyltransferase (FT) assay reactions were carried out for 2 h in a reaction mixture containing 50 mM Hepes buffer (pH 7.5), 5 mM MnCl2, 7 mM ATP, 3 mM NaN3, 3 mM synthetic acceptor or 40 μg of fetuin-based acceptor, 0.05 μCi GDP-[14C]Fuc (290 mCi/mmol) and 10 μl cell extract in a total volume of 20 μl [Chandrasekaran et al., 1996]. Sulfotransferase (Sulfo T) assay reactions took 2 h and required a mixture containing 100 mM Tris-maleate (pH 7.2), 5 mM Mg Acetate, 5 mM ATP, 10 mM NaF, 10 mM BAL, 7.5 mM acceptor, 0.5 μCi of [^35S]PAPS (specific activity 2.4 Ci/mmol) and 10 μl of cell extract in a total volume of 30 μl [Chandrasekaran et al., 2004].
(§3) Dowex-1-C1 or Sep-Pak C18 cartridges were used to isolate radiolabeled product from the reaction mixture. For GalT, GalNAc-T and FT assays, the incubation mixture was diluted with 1 ml water and passed through a 1 ml Dowex-1-C1 column [Chandrasekaran et al., 1996; Chandrasekaran et al., 2001]. The column was washed twice with 1 ml of water. The breakthrough and the water wash contained the [^14C]-galactosylated or [^14C]-fucosylated products formed with neutral acceptors. 3 ml of 0.1M NaCl was used to obtain [^14C]-fucosylated products from sialylated acceptors after water elution. For sialytransferase assays, the radioactive products from benzylglycosides were separated by hydrophobic chromatography on Sep-Pak C18 cartridge (Waters, Milford, Mass.), and elution of the product was done with 3 ml methanol [Palcic et al., 1988]. […]

[3] = system: α1,2-L-FT of breast tumor BC9400; experiment: α1,2-L-FT assay, breast tumor extract; assay type: biochemical, human; settings: 1 mg protein of the tissue extract
Description: as §1, §2, §3

| SMILES | Sialyltransferase activity (%) Cloned α2,3(N)ST [1] | α1,2-L-FT activity: incorporation of radioactive sugar [2] | α1,2-L-FT activity: incorporation of radioactive sugar [3] |
| --- | --- | --- | --- |
| CO[C@H]1[C@H](O[C@H]2[C@H](O)[C@@H](CO)OC(O)[C@@H]2NC(C)=O)O[C@H](CO)[C@H](O)[C@@H]1O (some centres unmarked) [2-O-MeGalβ1,3GlcNAc] | 115.3% | – | – |
| CO[C@H]1[C@H](O[C@H]2[C@H](O)[C@@H](NC(C)=O)C(O)O[C@@H]2CO)O[C@H](CO)[C@H](O)[C@@H]1O (some centres unmarked) [2-O-MeGalβ1,4GlcNAc] | 60.0% | – | – |
| CO[C@H]1O[C@H](CO)[C@H](O)[C@H](O[C@@H]2O[C@H](CO)[C@H](O)[C@H](O[C@@H]3O[C@H](C)[C@H](O)[C@H](O)[C@H]3O)[C@H]2NC(C)=O)[C@H]1O [D-Fucβ1,3GalNAcβ1,3Galα-O-Me] | 3.1% | 89.8 CPM × 10^−3 | 16.2 CPM × 10^−3 |
| C=CCO[C@H]1O[C@H](CO)[C@H](O)[C@H](O[C@@H]2O[C@H](CO)[C@H](O)[C@H](O)[C@H]2O)[C@H]1NC(C)=O [Galβ1,3GalNAcα-O—Al] | 24.1% | 36.8 CPM × 10^−3 | 5.5 CPM × 10^−3 |
| CO[C@H]1O[C@H](CO)[C@H](O)[C@H](O[C@@H]2O[C@H](CO)[C@H](O)[C@H](O[C@@H]3O[C@H](CO)[C@H](O)[C@H](O)[C@H]3O)[C@H]2NC(C)=O)[C@H]1O [Galβ1,3GalNAcβ1,3Galα-O-Me] | 106.8% and 106.8^20% | 49.1 CPM × 10^−3 | 13.7 CPM × 10^−3 |
